Data: ChEMBL document CHEMBL1128135, “Synthesis and biological evaluation of new arylthiophene analogs of DuP 753” (Bioorg Med Chem Lett, 1995)

Organism: Oryctolagus cuniculus
Test: In vitro antagonist activity was determined by the ability to antagonize the contractile response to angiotensin II in the isolated rabbit aortic strips
Format: functional
Conditions: Aorta

IC50 | Structure (SMILES)
328 nM | CCCCc1nc(Cl)c(CO)n1Cc1ccc(-c2ccccc2-c2nn[nH]n2)s1
330 nM | CCCCc1nc(Cl)c(C=O)n1Cc1ccc(-c2ccccc2-c2nn[nH]n2)s1

Continued, molecule first:

Structure (SMILES) | IC50
CCCCc1nc(Cl)c(CO)n1Cc1ccc(-c2ccccc2C(=O)O)s1 | 4160 nM
CCCCc1nc(Cl)c(CO)n1Cc1ccc(-c2ccccc2-c2nnn[nH]2)cc1 [LOSARTAN] | 6.1 nM
CCCCc1nc(Cl)c(CO)n1Cc1ccc(-c2ccccc2C(=O)O)cc1 | 120 nM
CCCCc1nc(Cl)c(C=O)n1Cc1ccc(-c2ccccc2C(=O)O)s1 | 2000 nM
